# US8129371B2, “Thienopyrimidine and pyrazolopyrimidine compounds and their use as mTOR kinase and PI3 kinase inhibitors” (Wyeth LLC, priority 2007, dated 2012)
# Where two headings read alike, the source gives them in different places.
# Columns and labels:
# prostate line LNCap = test: In vitro cell culture growth assay (MTS), LNCap; assay type: cell-based; details: Homo sapiens, LNCaP, 72 h, LNCap cells, three days after drug treatment
# Description: Human tumor cell lines used include prostate lines LNCap and PC3MM2, breast lines MDA468, MCF7, renal line HTB44 (A498), colon line HCT116, and ovarian line OVCAR3. Cells were plated in 96-well culture plates. One day following plating, the inhibitors were added to cells. Three days after drug treatment, viable cell densities were determined by metabolic conversion (by viable cells) of the dye MTS, a well-established cell proliferation assay. The assays were performed using an assay kit purchased from Promega Corp. (Madison, Wis.) following the protocol supplied with the kit. The MTS assay results were read in a 96-well plate reader by measuring absorbance at 490 nm. The effect of each treatment was calculated as percent of control growth relative to the vehicle-treated cells grown in the same culture plate.
# breast line MDA468 = test: In vitro cell culture growth assay (MTS), MDA468; assay type: cell-based; details: Homo sapiens, 72 h, MDA468 cells, three days after drug treatment
# How it was run: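 Plate cells; add inhibitors on day 1; after 3 days' treatment, add MTS; read A490; express as percent growth of vehicle-treated control.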
# PI3K [1] = biological target: T1, PI3K (Homo sapiens, UniProt P42336); test: Fluorescence polarization assay for PI3K; assay type: biochemical; details: read-out: PI3 Kinase α IC50
# T1 construct: PI3 Kinase α IC50; other: PI3 Kinase α; other: PI3 Kinase α isoform, fluorescence polarization
# How it was run: (§1)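 Fluorescence-polarization competition readout: after 30–60 min of PIP2/ATP turnover in 1% DMSO, a stop mix with GST-GRP (70 nM) and red probe (10 nM) was added.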
# PI3K [2] = biological target: T2, PI3K (Homo sapiens, UniProt P48736); test: Fluorescence polarization assay for PI3K; assay type: biochemical; details: read-out: PI3 Kinase γ IC50
# T2 construct: PI3 Kinase γ IC50; other: PI3 Kinase γ; other: PI3 Kinase γ isoform, fluorescence polarization
# How it was run: as §1
# Human mTOR (FLAG-TOR) = biological target: T3, Human mTOR (FLAG-TOR) (Homo sapiens, UniProt P42345); test: Human mTOR kinase assay with purified enzyme, DELFIA format; assay type: biochemical
# T3 construct: FLAG
# How it was run: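 DELFIA readout: Eu-anti-P(T389)-S6K antibody (40 ng/mL, 1 h) on captured His6-S6K from the stopped reaction. Kinase step used purified FLAG-tagged human mTOR with test compound in HEPES (pH 7.4)/MnCl2/DTT buffer, 2 h at room temperature (linear 1–6 h), terminated by EDTA/EGTA.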
# [3] = PI3 Kinase α isoform, fluorescence polarization
# [4] = PI3 Kinase γ isoform, fluorescence polarization
# [5] = purified human mTOR enzyme, DELFIA format
# T1 sequence (P42336 whole entry, canonical isoform): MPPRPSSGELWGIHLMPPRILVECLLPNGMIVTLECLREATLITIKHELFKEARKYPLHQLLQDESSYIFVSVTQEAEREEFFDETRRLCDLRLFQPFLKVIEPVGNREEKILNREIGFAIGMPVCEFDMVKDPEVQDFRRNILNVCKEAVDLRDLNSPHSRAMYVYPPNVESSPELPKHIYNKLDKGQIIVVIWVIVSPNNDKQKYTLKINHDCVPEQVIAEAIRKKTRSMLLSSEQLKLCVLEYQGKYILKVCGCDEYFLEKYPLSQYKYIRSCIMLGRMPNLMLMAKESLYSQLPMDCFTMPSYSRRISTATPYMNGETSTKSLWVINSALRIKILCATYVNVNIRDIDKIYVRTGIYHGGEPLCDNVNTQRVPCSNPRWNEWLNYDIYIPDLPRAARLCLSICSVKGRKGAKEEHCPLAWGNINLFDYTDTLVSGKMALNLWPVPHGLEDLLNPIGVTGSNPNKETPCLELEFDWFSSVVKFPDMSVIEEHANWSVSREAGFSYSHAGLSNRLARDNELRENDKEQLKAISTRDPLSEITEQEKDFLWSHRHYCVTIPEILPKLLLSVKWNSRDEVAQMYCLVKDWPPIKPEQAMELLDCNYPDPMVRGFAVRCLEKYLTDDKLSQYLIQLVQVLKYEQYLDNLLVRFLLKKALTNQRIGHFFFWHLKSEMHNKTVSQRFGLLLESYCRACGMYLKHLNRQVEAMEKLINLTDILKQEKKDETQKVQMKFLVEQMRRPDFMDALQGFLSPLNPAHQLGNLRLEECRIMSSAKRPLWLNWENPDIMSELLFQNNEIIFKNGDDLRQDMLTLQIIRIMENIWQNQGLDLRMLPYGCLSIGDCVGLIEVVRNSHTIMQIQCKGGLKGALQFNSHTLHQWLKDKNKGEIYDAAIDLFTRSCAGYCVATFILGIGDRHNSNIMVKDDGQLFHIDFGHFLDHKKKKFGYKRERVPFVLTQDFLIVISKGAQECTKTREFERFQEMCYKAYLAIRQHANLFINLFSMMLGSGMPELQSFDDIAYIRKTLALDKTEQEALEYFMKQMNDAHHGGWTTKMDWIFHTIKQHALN
# T2 sequence (P48736 whole entry, canonical isoform): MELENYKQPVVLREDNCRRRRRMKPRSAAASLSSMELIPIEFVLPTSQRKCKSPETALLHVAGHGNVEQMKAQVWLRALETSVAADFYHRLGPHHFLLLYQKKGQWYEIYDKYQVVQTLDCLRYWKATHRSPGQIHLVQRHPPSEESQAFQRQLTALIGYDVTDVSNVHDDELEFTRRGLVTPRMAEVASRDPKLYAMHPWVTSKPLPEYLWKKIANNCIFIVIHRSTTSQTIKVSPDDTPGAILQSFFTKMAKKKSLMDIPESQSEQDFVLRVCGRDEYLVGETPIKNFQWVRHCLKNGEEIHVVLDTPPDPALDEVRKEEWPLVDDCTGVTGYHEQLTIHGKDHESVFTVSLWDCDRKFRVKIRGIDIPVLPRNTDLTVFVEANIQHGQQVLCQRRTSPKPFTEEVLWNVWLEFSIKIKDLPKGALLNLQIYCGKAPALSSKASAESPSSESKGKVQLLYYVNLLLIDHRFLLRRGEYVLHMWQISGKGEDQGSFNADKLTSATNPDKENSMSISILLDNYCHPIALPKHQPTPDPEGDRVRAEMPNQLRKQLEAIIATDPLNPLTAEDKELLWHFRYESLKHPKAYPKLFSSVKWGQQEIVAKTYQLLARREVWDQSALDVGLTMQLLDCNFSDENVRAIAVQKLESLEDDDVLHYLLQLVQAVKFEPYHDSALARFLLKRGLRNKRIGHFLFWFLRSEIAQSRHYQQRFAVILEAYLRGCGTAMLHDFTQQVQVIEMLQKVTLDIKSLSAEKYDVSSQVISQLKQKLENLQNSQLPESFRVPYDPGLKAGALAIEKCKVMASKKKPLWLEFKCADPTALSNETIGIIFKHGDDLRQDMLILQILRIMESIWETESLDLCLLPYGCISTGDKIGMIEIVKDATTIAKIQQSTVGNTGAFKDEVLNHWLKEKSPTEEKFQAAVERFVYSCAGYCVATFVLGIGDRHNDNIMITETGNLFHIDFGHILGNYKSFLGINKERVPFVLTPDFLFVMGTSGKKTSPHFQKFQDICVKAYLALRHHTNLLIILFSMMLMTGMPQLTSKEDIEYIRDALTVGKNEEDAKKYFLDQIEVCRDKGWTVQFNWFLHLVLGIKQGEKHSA
Structure (SMILES),IC50 (prostate line LNCap),IC50 (PI3K [1]; [3]),IC50 (PI3K [2]; [4]),IC50 (Human mTOR (FLAG-TOR); [5]),IC50 (PI3K [1]; PI3 Kinase α),IC50 (PI3K [2]; PI3 Kinase γ),IC50 (Human mTOR (FLAG-TOR)),IC50 (breast line MDA468)
"CNC(=O)Nc1ccc(-c2nc(N3CC4CCC(C3)O4)c3cnn(CC(F)(F)F)c3n2)cc1 [Example 1, 1-methyl-3-{4-[4-(8-oxa-3-azabicyclo[3.2.1]oct-3-yl)-1-(2,2,2-trifluoroethyl)-1H-pyrazolo[3,4-d]pyrimidin-6-yl]phenyl}urea]",38 nM,–,–,–,1620 nM,> 10000 nM,0.63 nM,46 nM
"COC(=O)Nc1ccc(-c2nc(N3CC4CCC(C3)O4)c3cnn(CC(F)(F)F)c3n2)cc1 [Example 2, methyl {4-[4-(8-oxa-3-azabicyclo[3.2.1]oct-3-yl)-1-(2,2,2-trifluoroethyl)-1H-pyrazolo[3,4-d]pyrimidin-6-yl]phenyl}carbamate]",650 nM,–,–,–,> 10000 nM,> 10000 nM,8 nM,680 nM
"CCNC(=O)Nc1ccc(-c2nc(N3CC4CCC(C3)O4)c3cnn(CC(F)(F)F)c3n2)cc1 [Example 3, 1-ethyl-3-{4-[4-(8-oxa-3-azabicyclo[3.2.1]oct-3-yl)-1-(2,2,2-trifluoroethyl)-1H-pyrazolo[3,4-d]pyrimidin-6-yl]phenyl}urea]",< 27 nM,–,–,–,3750 nM,> 10000 nM,0.38 nM,< 27 nM
"O=C(Nc1ccc(-c2nc(N3CC4CCC(C3)O4)c3cnn(CC(F)(F)F)c3n2)cc1)Nc1cccnc1 [Example 4, 1-{4-[4-(8-oxa-3-azabicyclo[3.2.1]oct-3-yl)-1-(2,2,2-trifluoroethyl)-1H-pyrazolo[3,4-d]pyrimidin-6-yl]phenyl}-3-pyridin-3-ylurea]",< 27 nM,–,–,–,345 nM,2140 nM,0.18 nM,< 27 nM
"O=C(NCCF)Nc1ccc(-c2nc(N3CC4CCC(C3)O4)c3cnn(CC(F)(F)F)c3n2)cc1 [Example 6, 1-(2-fluoroethyl)-3-{4-[4-(8-oxa-3-azabicyclo[3.2.1]oct-3-yl)-1-(2,2,2-trifluoroethyl)-1H-pyrazolo[3,4-d]pyrimidin-6-yl]phenyl}urea]",< 27 nM,–,–,–,2750 nM,6570 nM,0.22 nM,< 27 nM
"CNC(=O)Nc1ccc(-c2nc(N3CC4CCC(C3)O4)c3cnn(C4CCN(C(=O)OC)CC4)c3n2)cc1 [Example 7, methyl 4-[6-{4-[(methylcarbamoyl)amino]phenyl}-4-(8-oxa-3-azabicyclo[3.2.1]oct-3-yl)-1H-pyrazolo[3,4-d]pyrimidin-1-yl]piperidine-1-carboxylate]",26 nM,–,–,–,1800 nM,> 10000 nM,0.21 nM,80 nM
"CNC(=O)Nc1ccc(-c2nc(N3CC4CCC(C3)O4)c3cnn(C4CCN(C(=O)OC(C)(C)C)CC4)c3n2)cc1 [Example 8, tert-butyl 4-[6-{4-[(methylcarbamoyl)amino]phenyl}-4-(8-oxa-3-azabicyclo[3.2.1]oct-3-yl)-1H-pyrazolo[3,4-d]pyrimidin-1-yl]piperidine-1-carboxylate]",< 27 nM,–,–,–,1480 nM,> 10000 nM,0.28 nM,180 nM

# Continued, in another order:
IC50 (prostate line LNCap),IC50 (PI3K [1]; [3]),IC50 (PI3K [2]; [4]),IC50 (Human mTOR (FLAG-TOR); [5]),IC50 (PI3K [1]; PI3 Kinase α),IC50 (PI3K [2]; PI3 Kinase γ),IC50 (Human mTOR (FLAG-TOR)),Structure (SMILES),IC50 (breast line MDA468)
7 nM,4560 nM,> 10000 nM,0.495 nM,–,–,–,"O=C(Nc1ccc(-c2nc(N3CC4CCC(C3)O4)c3cnn(C4CCC5(CCCO5)CC4)c3n2)cc1)NC1CC1 (single isomer, unassigned) [Example 316, 1-cyclopropyl-3-(4-{4-(8-oxa-3-azabicyclo[3.2.1]oct-3-yl)-1-[(5r,8r)-1-oxaspiro[4.5]dec-8-yl]-1H-pyrazolo[3,4-d]pyrimidin-6-yl}phenyl)urea]",160 nM
2 nM,909 nM,> 10000 nM,0.285 nM,–,–,–,"CNC(=O)Nc1ccc(-c2nc(N3CC4CCC(C3)O4)c3cnn(C4CCC5(CCCO5)CC4)c3n2)cc1 (single isomer, unassigned) [Example 389, 1-methyl-3-(4-{4-(8-oxa-3-azabicyclo[3.2.1]oct-3-yl)-1-[(5r,8r)-1-oxaspiro[4.5]dec-8-yl]-1H-pyrazolo[3,4-d]pyrimidin-6-yl}phenyl)urea]",17 nM
9 nM,–,–,–,5330 nM,> 10000 nM,0.22 nM,"CCNC(=O)Nc1ccc(-c2nc(N3CC4CCC(C3)O4)c3cnn(C4CCN(C(=O)OC)CC4)c3n2)cc1 [Example 9, methyl 4-[6-{4-[(ethylcarbamoyl)amino]phenyl}-4-(8-oxa-3-azabicyclo[3.2.1]oct-3-yl)-1H-pyrazolo[3,4-d]pyrimidin-1-yl]piperidine-1-carboxylate]",180 nM
12 nM,–,–,–,4930 nM,6590 nM,0.34 nM,"COC(=O)N1CCC(n2ncc3c(N4CC5CCC(C4)O5)nc(-c4ccc(NC(=O)NCCF)cc4)nc32)CC1 [Example 10, methyl 4-[6-(4-{[(2-fluoroethyl)carbamoyl]amino}phenyl)-4-(8-oxa-3-azabicyclo[3.2.1]oct-3-yl)-1H-pyrazolo[3,4-d]pyrimidin-1-yl]piperidine-1-carboxylate]",220 nM
10 nM,–,–,–,272 nM,6820 nM,0.37 nM,"COC(=O)N1CCC(n2ncc3c(N4CC5CCC(C4)O5)nc(-c4ccc(NC(=O)Nc5ccccc5)cc4)nc32)CC1 [Example 11, methyl 4-[4-(8-oxa-3-azabicyclo[3.2.1]oct-3-yl)-6-{4-[(phenylcarbamoyl)amino]phenyl}-1H-pyrazolo[3,4-d]pyrimidin-1-yl]piperidine-1-carboxylate]",120 nM
15 nM,–,–,–,613 nM,6840 nM,0.1 nM,"COC(=O)N1CCC(n2ncc3c(N4CC5CCC(C4)O5)nc(-c4ccc(NC(=O)Nc5cccnc5)cc4)nc32)CC1 [Example 13, methyl 4-[4-(8-oxa-3-azabicyclo[3.2.1]oct-3-yl)-6-{4-[(pyridin-3-ylcarbamoyl)amino]phenyl}-1H-pyrazolo[3,4-d]pyrimidin-1-yl]piperidine-1-carboxylate]",75 nM
0.9 nM,–,–,–,487 nM,2050 nM,0.16 nM,"COC(=O)N1CCC(n2ncc3c(N4CC5CCC(C4)O5)nc(-c4ccc(NC(=O)Nc5ccncc5)cc4)nc32)CC1 [Example 14, methyl 4-[4-(8-oxa-3-azabicyclo[3.2.1]oct-3-yl)-6-{4-[(pyridin-4-ylcarbamoyl)amino]phenyl}-1H-pyrazolo[3,4-d]pyrimidin-1-yl]piperidine-1-carboxylate]",19 nM
4 nM,–,–,–,2280 nM,> 10000 nM,0.31 nM,"CCNC(=O)Nc1ccc(-c2nc(N3CC4CCC(C3)O4)c3cnn(C4CCN(Cc5cccnc5)CC4)c3n2)cc1 [Example 15, 1-ethyl-3-(4-{4-(8-oxa-3-azabicyclo[3.2.1]oct-3-yl)-1-[1-(pyridin-3-ylmethyl)piperidin-4-yl]-1H-pyrazolo[3,4-d]pyrimidin-6-yl}phenyl)urea]",85 nM
6 nM,–,–,–,2630 nM,> 10000 nM,0.5 nM,"O=C(NCCF)Nc1ccc(-c2nc(N3CC4CCC(C3)O4)c3cnn(C4CCN(Cc5cccnc5)CC4)c3n2)cc1 [Example 16, 1-(2-fluoroethyl)-3-(4-{4-(8-oxa-3-azabicyclo[3.2.1]oct-3-yl)-1-[1-(pyridin-3-ylmethyl)piperidin-4-yl]-1H-pyrazolo[3,4-d]pyrimidin-6-yl}phenyl)urea]",80 nM
0.8 nM,–,–,–,222 nM,1860 nM,0.61 nM,"O=C(Nc1ccccc1)Nc1ccc(-c2nc(N3CC4CCC(C3)O4)c3cnn(C4CCN(Cc5cccnc5)CC4)c3n2)cc1 [Example 17, 1-(4-{4-(8-oxa-3-azabicyclo[3.2.1]oct-3-yl)-1-[1-(pyridin-3-ylmethyl)piperidin-4-yl]-1H-pyrazolo[3,4-d]pyrimidin-6-yl}phenyl)-3-phenylurea]",10 nM
< 0.8 nM,–,–,–,326 nM,3480 nM,0.25 nM,"O=C(Nc1ccc(-c2nc(N3CC4CCC(C3)O4)c3cnn(C4CCN(Cc5cccnc5)CC4)c3n2)cc1)Nc1cccnc1 [Example 18, 1-(4-{4-(8-oxa-3-azabicyclo[3.2.1]oct-3-yl)-1-[1-(pyridin-3-ylmethyl)piperidin-4-yl]-1H-pyrazolo[3,4-d]pyrimidin-6-yl}phenyl)-3-pyridin-3-ylurea]",< 0.8 nM
